Source: ChEMBL document CHEMBL4330166, “Euphorhelipanes A and B, Triglyceride-Lowering Euphorbia Diterpenoids with a Bicyclo[4.3.0]nonane Core from Euphorbia helioscopia” (J Nat Prod, 2019)
Calls of active or inactive are those of the source. The rule behind the calls is not given here.

Legend:
Huh-7 [1] = test: Inhibition of oleic acid-induced triglyceride accumulation in human HuH7 cells after 24 hrs; assay type: functional, cell-based
Huh-7 [2] = test: Inhibition of oleic acid-induced triglyceride accumulation in human HuH7 cells up to 50 uM after 24 hrs by Oil Red O staining based assay; assay type: functional, cell-based
Huh-7 [3] = test: Cytotoxicity against human HuH7 cells after 24 hrs by LDH release assay; assay type: cell-based; settings: huh-7, 24 h

Row | Compound | inhibition (Huh-7 [1]) | inhibition (Huh-7 [2]) | Activity (Huh-7 [3])
1 | CC(=O)C(C)(C)/C=C/[C@@H](C)[C@@]1(O)C(=O)[C@H]2[C@@H](C=C[C@@H]2C)[C@H](C)[C@@H]1O | Dose-dependent effect | Active | Non-Toxic
2 | CC(=O)C(C)(C)/C=C/[C@H](C)[C@@]1(O)C(=O)[C@H]2[C@@H](C=C[C@@H]2C)[C@H](C)[C@@H]1O | Dose-dependent effect | Active | Non-Toxic
